Values quoted from earlier work in article PMC6738096 (British Journal of Cancer, 2019).

Legend:
ALK-positive NSCLC = tested on: ALK-positive NSCLC; design: method as in not given; settings: ALK pre-treated setting, post crizotinib; ref not given; cited from earlier work
[1] = cited from earlier work

COc1cc(N2CCC(N3CCN(C)CC3)CC2)ccc1Nc1ncc(Cl)c(Nc2ccccc2P(C)(C)=O)n1 [brigatinib]
Objective response rate (ALK-positive NSCLC): 45–54%
QTc prolongation in clinical trials [1]: QTc was not prolonged to any clinically relevant extent

Cc1cc(Nc2ncc(Cl)c(Nc3ccccc3S(=O)(=O)C(C)C)n2)c(OC(C)C)cc1C1CCNCC1 [ceritinib]
Objective response rate (ALK-positive NSCLC): 55%
Patients with QTc > 500 ms ([1]; among 919 patients): 1.3%
Patients with ΔQTc of > 60 ms ([1]; among 919 patients): 6%

C[C@H]1Oc2cc(cnc2N)-c2c(nn(C)c2C#N)CN(C)C(=O)c2ccc(F)cc21 [lorlatinib]
Objective response rate (ALK-positive NSCLC): 48%
